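48-hour exposure; five concentrations; linearly interpolated endpoints. GI50 = concentration required for 50% inhibition of growth. Definition used: TGI = concentration required for complete inhibition of growth.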
Assays:
Assay in all cases: NCI tumour cell line growth inhibition, 48 h
SN12C renal = test system: SN12C renal
SK-MEL-5 melanoma = test system: SK-MEL-5 melanoma
MDA-MB-231 breast = test system: MDA-MB-231 breast
A549 NSCLC = test system: A549 NSCLC
BT-549 breast = test system: BT-549 breast
NCI-H522 lung = test system: NCI-H522 lung
SK-MEL-28 melanoma = test system: SK-MEL-28 melanoma
NCI-H226 lung = test system: NCI-H226 lung
OVCAR-4 ovarian = test system: OVCAR-4 ovarian
K-562 leukemia = test system: K-562 leukemia
RXF 393 renal = test system: RXF 393 renal
NCI-H23 lung = test system: NCI-H23 lung
NCI-H460 lung = test system: NCI-H460 lung
HCT-116 colon = test system: HCT-116 colon
SW-620 colon = test system: SW-620 colon
SF-268 CNS = test system: SF-268 CNS
CCRF-CEM leukemia = test system: CCRF-CEM leukemia
MALME-3M melanoma = test system: MALME-3M melanoma
MOLT-4 leukemia = test system: MOLT-4 leukemia
PC-3 prostate = test system: PC-3 prostate
HL-60(TB) leukemia = test system: HL-60(TB) leukemia
UACC-62 melanoma = test system: UACC-62 melanoma
SNB-19 CNS = test system: SNB-19 CNS
SR leukemia = test system: SR leukemia
OVCAR-8 ovarian = test system: OVCAR-8 ovarian
SF-295 CNS = test system: SF-295 CNS
MCF7 breast = test system: MCF7 breast
T-47D breast = test system: T-47D breast

## COc1ccc(-c2nc(N3CCN(C(=O)C4CCCCC4)CC3)c3c4c(sc3n2)CCCC4)cc1
SN12C renal
  GI50: > 100 µM
  TGI: > 100 µM
SK-MEL-5 melanoma
  GI50: 68.9 µM
  TGI: > 100 µM
MDA-MB-231 breast
  GI50: 19.4 µM
  TGI: 82.8 µM
A549 NSCLC
  GI50: 50.1 µM
  TGI: > 100 µM
BT-549 breast
  GI50: 57.5 µM
  TGI: > 100 µM
NCI-H522 lung
  GI50: 27.9 µM
  TGI: 96.9 µM
SK-MEL-28 melanoma
  GI50: > 100 µM
  TGI: > 100 µM
NCI-H226 lung
  GI50: 41 µM
  TGI: > 100 µM
OVCAR-4 ovarian
  GI50: > 100 µM
  TGI: > 100 µM
K-562 leukemia
  GI50: > 100 µM
  TGI: > 100 µM
RXF 393 renal
  GI50: 21.3 µM
  TGI: 53.4 µM
NCI-H23 lung
  GI50: 63.1 µM
  TGI: > 100 µM
NCI-H460 lung
  GI50: > 100 µM
  TGI: > 100 µM
HCT-116 colon
  GI50: 34.2 µM
  TGI: > 100 µM
SW-620 colon
  GI50: > 100 µM
  TGI: > 100 µM
SF-268 CNS
  GI50: 89 µM
  TGI: > 100 µM
CCRF-CEM leukemia
  GI50: > 100 µM
  TGI: > 100 µM
MALME-3M melanoma
  GI50: 92.1 µM
  TGI: > 100 µM
MOLT-4 leukemia
  GI50: > 100 µM
  TGI: > 100 µM
PC-3 prostate
  GI50: 26.1 µM
  TGI: > 100 µM
HL-60(TB) leukemia
  GI50: 70.5 µM
  TGI: > 100 µM
UACC-62 melanoma
  GI50: 40.8 µM
  TGI: > 100 µM
SNB-19 CNS
  GI50: 25.7 µM
  TGI: > 100 µM
SR leukemia
  GI50: > 100 µM
  TGI: > 100 µM
OVCAR-8 ovarian
  GI50: 46.4 µM
  TGI: > 100 µM
SF-295 CNS
  GI50: 26.2 µM
  TGI: 85.1 µM
MCF7 breast
  GI50: 82.9 µM
  TGI: > 100 µM
T-47D breast
  GI50: 20.6 µM
